Results published in patent publication US20190110472A1, “ACTIVE INGREDIENT COMPOSITIONS COMPRISING N-ALKENOYL-N-ALKYLGLUCAMIDES AND THE USE THEREOF” (Clariant International, Ltd., priority 2017, published 2019).

Tests used:
indicator plants = test: Plant compatibility after application to indicator plants; format: in vivo; conditions: concentrations of 0.1, 0.3, 0.8, 1.0, 1.5, 2 and 3 g/L
[1] = Dynamic surface tension, bubble pressure method (BP2100 tensiometer, Krüss); format: physicochemical; conditions: for Dynamic surface tension [mN/m] 20 ms: surface age 20 ms; for Dynamic surface tension [mN/m] 50 ms: surface age 50 ms; for Dynamic surface tension [mN/m] 100 ms: surface age 100 ms; for Dynamic surface tension [mN/m] 200 ms: surface age 200 ms
Method: Dynamic surface tension was determined via the bubble pressure method (BP2100 tensiometer, Krüss). Given a timespan of relevance for the spray application of agrochemicals in aqueous dilution (called the surface age in the bubble pressure method) of 200 milliseconds (ms), the value for dynamic surface tension in [mN/m] correlates with the adhesion on plants that are difficult to wet, such as barley (cereal). A value of 50 mN/m (at 20-21° C.) with respect to water (72.8 mN/m) results in an improvement in the adhesion from “zero adhesion” (0%) to about 50% (Baur P., Pontzen R.; 2007; Basic features of plant surface wettability and deposit formation and the impact of adjuvant; in R. E. Gaskin ed. Proceedings of the 8th International Symposium on Adjuvants for Agrochemicals; Publisher: International Society for Agrochemical Adjuvants (ISAA), Columbus, Ohio, USA).

[2] = Appearance and stability of spray liquids after 24 h; format: physicochemical
Method: The composition of spray liquids A1-A18 is specified hereinafter. These spray liquids are produced by mixing the various test substances in water, and the appearance and stability of the spray liquid were assessed after 24 h.
The inventive alkenoylglucamides (A1 to A6) are self-emulsifying in the spray liquid and form cloudy homogeneous emulsions that are stable over 24 h. By contrast, spray liquids comprising non-inventive saturated alkylglucamides (A7-A13) of similar chain length are not phase-stable and flocculate.

apple leaf cuticles = test: Membrane penetration test of metribuzin through isolated apple leaf cuticles; format: in vitro ADME; conditions: Sencor 600 SC, metribuzin 2.25 g/L, 10° C./56% rel. air humidity
Method: The potential of the test substances, which is independent of the surfactant action, to promote foliar absorption of active agrochemical ingredients was determined in membrane penetration tests with apple leaf cuticles using the example of metribuzin. […] Efforts are therefore being made to find additives that promote wetting but only slightly increase the uptake of the active ingredient, such that only a minimum portion of the active ingredient is taken up into the leaf. The plant cuticle is a lipophilic solubility membrane (lipid membrane) without pores or holes, and the results described are also expected for other nonporous lipophilic solubility membranes with these or other electrolyte active ingredients. The principle of the method has been published (e.g. WO-A-2005/194844; Baur, 1997; Baur, Grayson and Schönherr 1999; Baur, Bodelon and Lowe, 2012), and only the specifics and differences in the method are elucidated hereinafter. The leaf cuticles were enzymatically isolated in the manner described in the literature from apple leaves of orchard trees in a commercial stone fruit growing facility near Frankfurt am Main in 2016. The stomata-free cuticles were first dried under air and then installed into stainless steel diffusion cells. After application to the original upper side of the leaf and evaporation of the test liquid, i.e. of the aqueous preparations of the active ingredients without or with the glucamide-containing spray liquids or comparative compositions, the diffusion cells were transferred into thermostatted blocks and charged with aqueous liquid. The water used to make up the aqueous test liquids was local tap water (of known composition). At regular intervals, aliquot samples were taken and the proportion of active ingredient penetrated was determined by HPLC. During the experiment, the temperature in the system (block, diffusion cells, liquids, etc.) and the air humidity above the spray deposit on the cuticle were known exactly and were monitored. […] In each case, the geometric mean values of the penetration for intact membranes at the mean measurement times are given. According to the variant (active ingredient×test additive/formulation), 7-8 repetitions were set up. The coefficient of variation was below 35%, which is a typical biological variability for penetration for numerous plants (Baur, 1997).

[3] = Droplet size distribution of spray (Malvern Spraytec, ID(3)12002 injector nozzle, 3 bar); format: physicochemical; conditions: summary of Table 4, no tankmix partner
Description: A Malvern Spraytec “real-time spray sizing system” was used to determine the droplet size distribution. For this purpose, the system (STP5311, Malvern Instruments GmbH, Heidelberg, Germany) was installed in a specially constructed spray cabin, with the option of being able to model real spray applications as carried out in practice with freely adjustable pressure for various hydraulic nozzles and freely adjustable distances (nozzle-target surface). The spray cabin can be darkened and all disruptive parameters can be eliminated. For the measurements, the ID(3)12002 (Lechler) injector nozzles were used. The pressure set was varied, and mean pressure was kept constant at 3 bar for the measurements reported hereinafter. The temperature and relative air humidity varied between 21.5° C. and 29° C. and between 33% and 56% respectively. In each test series, tap water was measured as internal standard. […]
As a further measurement parameter, the proportion by volume of the droplets having diameter <210 μm (“Vol 210”) was determined and expressed in relation to the proportion by volume of droplets having diameter <105 μm (“Vol 210 / Vol 105”). In addition, the percentage reduction in the proportion by volume of droplets having diameter <105 μm in the case of use of spray liquids containing the test substances was calculated in comparison to the use of tap water as internal standard (“Red 105”).

Row | SMILES | Plant compatibility (necroses or other symptoms such as leaf curl-up or deformation) (indicator plants) | Dynamic surface tension [mN/m] 20 ms ([1]; amount 0.03 % by wt.) [mN/m] | Dynamic surface tension [mN/m] 20 ms ([1]; amount 0.1 % by wt.) [mN/m] | Dynamic surface tension [mN/m] 20 ms ([1]; amount 0.3 % by wt.) [mN/m] | Dynamic surface tension [mN/m] 50 ms ([1]; amount 0.03 % by wt.) [mN/m] | Dynamic surface tension [mN/m] 50 ms ([1]; amount 0.1 % by wt.) [mN/m] | Dynamic surface tension [mN/m] 50 ms ([1]; amount 0.3 % by wt.) [mN/m] | Dynamic surface tension [mN/m] 100 ms ([1]; amount 0.03 % by wt.) [mN/m] | Dynamic surface tension [mN/m] 100 ms ([1]; amount 0.1 % by wt.) [mN/m] | Dynamic surface tension [mN/m] 100 ms ([1]; amount 0.3 % by wt.) [mN/m] | Dynamic surface tension [mN/m] 200 ms ([1]; amount 0.03 % by wt.) [mN/m] | Dynamic surface tension [mN/m] 200 ms ([1]; amount 0.1 % by wt.) [mN/m] | Dynamic surface tension [mN/m] 200 ms ([1]; amount 0.3 % by wt.) [mN/m] | also measured
1 | CCCCCCCCC(=O)N(C)C[C@H](O)[C@@H](O)[C@H](O)[C@H](O)CO [N-methyl-N-nonanoylglucamine] | no necroses or other symptoms | – | – | – | – | – | – | – | – | – | – | – | – | –
2 | CCCCCCCCCCCC(=O)N(C)CC(O)C(O)C(O)C(O)CO (stereo not drawn) [dodecanoyl-N-methylglucamide] | – | 70.6 | 70.0 | 67.0 | 67.3 | 66.8 | 61.9 | 63.0 | 60.1 | 58.8 | 57.9 | 51.4 | 48.7 | –
3 | C=CCCCCCCCC(=O)N(C)CC(O)C(O)C(O)C(O)CO (stereo not drawn) [dec-9-enoyl-N-methylglucamide] | – | – | – | – | – | – | – | – | – | – | – | – | – | Water solubility in the spray liquid [2]: completely water-soluble; Appearance ([2]; spray liquid in water, assessed after 24 h): clear transparent spray liquid; Dynamic surface tension [mN/m] 20 ms ([1]; amount 0.06 % by wt.): 70.2 mN/m; Dynamic surface tension [mN/m] 20 ms ([1]; amount 0.125 % by wt.): 66.4 mN/m; Dynamic surface tension [mN/m] 20 ms ([1]; amount 0.25 % by wt.): 59.7 mN/m; Dynamic surface tension [mN/m] 50 ms ([1]; amount 0.06 % by wt.): 68.9 mN/m; Dynamic surface tension [mN/m] 50 ms ([1]; amount 0.125 % by wt.): 63.7 mN/m; Dynamic surface tension [mN/m] 50 ms ([1]; amount 0.25 % by wt.): 56.6 mN/m; Dynamic surface tension [mN/m] 100 ms ([1]; amount 0.06 % by wt.): 67.6 mN/m; Dynamic surface tension [mN/m] 100 ms ([1]; amount 0.125 % by wt.): 61.8 mN/m; Dynamic surface tension [mN/m] 100 ms ([1]; amount 0.25 % by wt.): 55.5 mN/m; Dynamic surface tension [mN/m] 200 ms ([1]; amount 0.06 % by wt.): 67.4 mN/m; Dynamic surface tension [mN/m] 200 ms ([1]; amount 0.125 % by wt.): 61.0 mN/m; Dynamic surface tension [mN/m] 200 ms ([1]; amount 0.25 % by wt.): 54.1 mN/m
4 | CCC=CCCCCCCCC(=O)N(C)CC(O)C(O)C(O)C(O)CO (stereo not drawn) [Dodec-9-enoyl-N-methylglucamide] | no necroses or other symptoms | 70.0 | 56.1 | 44.5 | 66.1 | 47.7 | 38.5 | 61.9 | 44.0 | 36.0 | 58.6 | 40.1 | 33.4 | Mean penetration for metribuzin after time in % 1 day (apple leaf cuticles; test substance 0.05 % by wt.): 2.9%; Mean penetration for metribuzin after time in % 2 days (apple leaf cuticles; test substance 0.05 % by wt.): 4.6%; Mean penetration for metribuzin after time in % 1 day (apple leaf cuticles; test substance 0.1 % by wt.): 3.9%; Mean penetration for metribuzin after time in % 2 days (apple leaf cuticles; test substance 0.1 % by wt.): 6.5%; Mean penetration for metribuzin after time in % 1 day (apple leaf cuticles; test substance 0.14 % by wt.): 5.7%; Mean penetration for metribuzin after time in % 2 days (apple leaf cuticles; test substance 0.14 % by wt.): 8.6%; Lowering of the dynamic surface tension (in words) ([1]; summary of Table 2): particularly large; Effect on fine droplet content (in words) [3]: distinct reduction in the fine droplet content
